System: phospho-NFκB
Assay: Western blotting onto NFκB and phospho-NFκB in JFH-1 infected Huh 7.5.1 cells
Type: cell-based
Details: 100 μM, 72 hours
Excerpt: Conducted western blotting onto NFκB and phospho-NFκB which are transcription factors of virus suppression mechanism of ginsenosides to a hepatoma cell line.
Specifically, it is known that when cells are infected with hepatitis C viruses, TNF-α in the cells increases and, apoptosis actions in the cells increases due to an anti-apoptotic factor, NFkB decreases. Additionally, identification of phosphor-NFκB among NFκB (total) is important to know activation level of NFκB.
Herein, western blotting analysis onto NFκB and phospho-NFκB, transcription factors, was carried out to identify the TNF-α mediated apoptotic signaling pathway. The TNF-α is induced by Hepatitis C. The analysis was conducted 72 hours after the samples of Huh 7.5.1 cells treated with each 100 μM of seven ginsenosides (Ro, Re, Rg1, Rg2, Rg3, Rh1, Rh2) as above stated in Example 3.
Specifically, the western blotting analysis was carried out as follow. First, the above described samples were prepared, mixed with a sample buffer in tubes and heated at 100° C. for 10 minutes. The tubes were cooled on ice and centrifuged. The electrophoresis was carried out with the prepared samples and molecular weight markers were put in. And then, they were transferred to a PVDF membrane (hydrophobic). After blocking with 5% skin milk for an hour, primary antibodies of NFκB and phospho-NFκB were added. […]

CC(C)=CCC[C@](C)(O)[C@H]1CC[C@]2(C)[C@@H]1[C@H](O)C[C@@H]1[C@@]3(C)CC[C@H](O[C@@H]4O[C@H](CO)[C@@H](O)[C@H](O)[C@H]4O[C@@H]4O[C@H](CO)[C@@H](O)[C@H](O)[C@H]4O)C(C)(C)[C@@H]3CC[C@]12C [ginsenoside Rg3]
apoptosis of cells: remarkably decreased

— patent publication US8865659B2, “Compositions for prevention or treatment of Hepatitis C virus containing ginsenoside Rg3 as an active ingredient” (priority 2012, dated 2014)
